29 molecules from PubChem BioAssay AID179 (DTP/NCI, 2004) can be followed below.

The subject of this test is CEM cells HIV-1 protection, formazan growth assay. Put plainly: NCI AIDS Antiviral Assay. The conditions noted are these: for IC50: measured here: growth of uninfected CEM cells. A digest of the protocol: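 Screen of anti-HIV-1 activity in human CEM cells using a formazan-based growth measurement at five drug concentrations. Hits with 50% or greater protection were repeated, and confirmation required reproducible complete protection.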

Active and inactive are the calls of the source.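 Rule for the calls: active = compounds giving half or more protection of infected cells from virus-caused growth loss, again on retest; inactive = the rest.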 Where only a bound is given, the exact number is not on record here.

Take `Oc1cc2c3c(c1)CCCN3CCC2`: the EC50 is greater than 200 µM and the IC50 was determined as 195 µM.
The like results for `CN1CN(c2ccccc2)C2(CCN(CCC3COc4ccccc4O3)CC2)C1=O` (stereo not drawn) were, in that order, greater than 200 µM and 30.9 µM.
For `Nc1ccc(/C=C\C2(CCl)OCCO2)cc1` the same measures were greater than 100 µM and greater than 100 µM.
For `C=CCn1c(-c2ccc([N+](=O)[O-])cc2)cs/c1=N\C(P(=O)(O)O)P(=O)(O)O` the same measures were greater than 200 µM and greater than 200 µM.
Consider `O=c1[nH]c(O)c(/C=N/C(=S)Nc2ccc(S(=O)(=O)Nc3nccs3)cc2)c(=O)[nH]1`, for which the EC50 was greater than 200 µM and the IC50 is greater than 200 µM.
Regarding `Cc1nc2ccccc2c(=O)n1NC(=S)NC1CCCCC1`, the EC50 is greater than 4.57 µM and the IC50 is greater than 4.57 µM.
On to `C=CC1ON(Cc2ccccc2)CCc2cc(OC)c(OC)cc21` (stereo not drawn), for which the EC50 was greater than 200 µM and the IC50 worked out at 40.7 µM.
For `O=C(CC(C(=O)c1ccoc1)c1ccco1)c1ccco1` (stereo not drawn) the same measures were greater than 200 µM and 151 µM.
For `CC(=O)N1C(=O)CC23c4cccc([N+](=O)[O-])c4C(=O)N2CCCN13` (stereo not drawn) the same measures were greater than 398 µM and greater than 398 µM.
The like results for `COc1cc2c(oc(=O)c3c4occc4cc(OC)c23)c2cccc(O)c12` were, in that order, greater than 1.45 µM and greater than 1.45 µM.
Consider `CCCCCCCCCC1OC(CCCCCCCCC)OC(CCCCCCCCC)O1` (stereo not drawn), for which the EC50 is greater than 200 µM and the IC50 is greater than 200 µM.
Regarding `CCCCCCCCCCCCCCCCCC1=Nc2cc(C)c(C)cc2NC(=O)C1`, the EC50 is greater than 100 µM and the IC50 was greater than 100 µM.
As for `CC1=Nc2ccccc2S/C1=C(/C)NNS(=O)(=O)c1ccc(C)cc1`, the EC50 is greater than 53.7 µM and the IC50 was greater than 53.7 µM.
As for `CN(C)CCn1cnc2ncccc2c1=O`, the outcome was inactive.
For the molecule `N=c1c2sc3nc4ccccc4n3c2ncn1Cc1ccccc1`, the EC50 is greater than 100 µM and the IC50 was greater than 100 µM.
As to `O=C1c2ccccc2C(=O)C1c1ccc2c(ccc3ccccc32)n1`, the outcome was inactive.
For the molecule `CCOC(=O)C(=O)Nc1c(C)cccc1C(C)C`, the EC50 was greater than 1000 µM and the IC50 is greater than 1000 µM.
In the case of `C[C@@]1(O)CC[C@]2(C)C3CCCC3[C@H]12` (stereo partly drawn), the result was inactive.
As for `O=C1OCN(c2ccccc2)C12CCN(Cc1ccccc1)CC2`, the EC50 was greater than 200 µM and the IC50 came to 28.8 µM.
For `CCC(C)C(C1=C(O)c2ccccc2C(=O)C1=O)C1=C(O)c2ccccc2C(=O)C1=O` (stereo not drawn) the same measures were greater than 200 µM and 87.1 µM.
For `O=c1[nH]ncc(N/N=C(/C=C/c2ccc(C/C(=N/Nc3cn[nH]c(=O)c3Cl)c3ccccc3)cc2)c2ccccc2)c1Cl`, the result was inactive.
On to `COC(=O)C1CCC(=O)N1CN(C(C)=O)c1ccccc1Cl` (stereo not drawn), for which the EC50 was greater than 200 µM and the IC50 was greater than 200 µM.
As to `Cc1ccc(S(=O)(=O)C(CCC(=O)c2ccccc2)(CCC(=O)c2ccccc2)[N+](=O)[O-])cc1`, the EC50 is greater than 10.7 µM and the IC50 is greater than 10.7 µM.
Regarding `O=C1Nc2ccccc2N=CC1NC(=O)C(c1ccccc1)c1ccccc1` (stereo not drawn), the EC50 is greater than 257 µM and the IC50 was determined as 224 µM.
For `N#C/C(=C\c1cc(O)c(O)c(O)c1)C(=O)NCCCCNC(=O)/C(C#N)=C/c1cc(O)c(O)c(O)c1`, the EC50 is greater than 200 µM and the IC50 stood at 61.7 µM.
In the case of `COC(=O)C1(C2CCOC2=O)NCCc2c1[nH]c1ccccc21` (stereo not drawn), the EC50 is greater than 245 µM and the IC50 was 141 µM.
The like results for `O=[N+]([O-])C1=C(c2ccccc2)SC=C(c2ccccc2)S1` were, in that order, greater than 200 µM and 9.77 µM.
Consider `CCCCCCCCCCCC(=O)C1=C(O)C(O)CCC1=O` (stereo not drawn), for which the outcome was inactive.
Regarding `O=[N+]([O-])/C=C/c1cc2ccc3ccccc3c2[nH]1`, the EC50 was greater than 200 µM and the IC50 was 1.02 µM.

Broadly, the EC50 is the concentration that produces a half-maximal response. As usually defined, the IC50 is the point on the concentration scale where inhibition reaches its midpoint. A low value points to inhibition by little substance.
